These results are taken from article PMC11173382, “In Vitro Investigations into the Potential Drug Interactions of Pseudoginsenoside DQ Mediated by Cytochrome P450 and Human Drug Transporters” (Molecules, 2024).

The target of one series is T1, hOATP1B1 (Homo sapiens, UniProt Q9Y6L6).
T1 sequence (Q9Y6L6 1-691): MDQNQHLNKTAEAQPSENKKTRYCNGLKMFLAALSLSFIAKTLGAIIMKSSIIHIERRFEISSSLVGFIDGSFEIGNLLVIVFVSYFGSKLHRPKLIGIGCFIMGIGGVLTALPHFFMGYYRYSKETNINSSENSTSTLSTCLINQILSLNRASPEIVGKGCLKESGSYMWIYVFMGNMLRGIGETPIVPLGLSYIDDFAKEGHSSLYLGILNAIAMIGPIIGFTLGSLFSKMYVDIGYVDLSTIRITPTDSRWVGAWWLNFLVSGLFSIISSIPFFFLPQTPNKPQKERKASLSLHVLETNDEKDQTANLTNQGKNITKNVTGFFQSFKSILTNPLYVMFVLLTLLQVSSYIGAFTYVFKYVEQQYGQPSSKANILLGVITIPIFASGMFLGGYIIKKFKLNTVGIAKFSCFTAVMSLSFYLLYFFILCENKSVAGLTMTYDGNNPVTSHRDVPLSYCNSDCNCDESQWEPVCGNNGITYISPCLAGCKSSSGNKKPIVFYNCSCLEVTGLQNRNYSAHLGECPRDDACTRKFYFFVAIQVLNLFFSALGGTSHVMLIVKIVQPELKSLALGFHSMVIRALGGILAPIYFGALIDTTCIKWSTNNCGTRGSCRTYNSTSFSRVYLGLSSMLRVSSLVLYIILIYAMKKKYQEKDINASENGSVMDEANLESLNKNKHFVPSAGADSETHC
Kind of series: Substrates uptake assay, HEK293A-OATP1B1 cells (3H-ES). It counts as in vitro ADME. Conditions: for Transport activity of OATP1B1 (main text: percentage inhibition): negative control = 100%. From the text: Drug transporters mediate the cellular uptake and efflux of their substrates. Therefore, cell lines overexpressing a drug transporter can be utilized to investigate inhibitors of the transporter by assessing changes in substrate uptake. For each drug transporter, we selected a well-characterized inhibitor as the positive control. Radiolabeled substrates were used to indicate the decrease in transport efficiency when the drug transporters were inhibited by PDQ or the control inhibitors.
The concentrations of the control drugs and the substrates were stated in the assay details. Working solutions of the control inhibitors, the radiolabeled substrates, and each dose of PDQ were prepared at 200 times (200×) more concentrated solutions with DMSO for further dilution.
Transporter-overexpressed cell lines. Human organic anion transporter-overexpressed cell lines MDCKII-OAT1 and S2-OAT3, human organic anion transport polypeptide-overexpressed cell lines HEK293A-OATP1B1 and HEK293A-OATP1B3, human organic cation transporter 2-overexpressed cell line S2-OCT2, and human multi-drug resistance protein MDR1 (or P-gp)-overexpressed cell line MDCKII-MDR1 were gifts from Japan Fuji Biomedical Co., Ltd. (Fuji, Shizuoka Prefecture, Japan). Breast cancer resistance protein-overexpressed vesicles (sf9-BCRP vesicle) were purchased from GenoMembrane Co., Ltd. (Yokohama, Kanagawa, Japan).
Substrates uptake assay. In this assay, we studied the inhibition of PDQ against transporters OAT1, OAT3, OCT2, OATP1B1 and OATP1B3 with MDCKII-OAT1, S2-OAT3, S2-OCT2, HEK293A-OATP1B1and HEK293A-OATP1B3 cells, respectively. The radiolabeled substrates for OAT1, OAT3, OATP1B1, OATP1B3 and OCT2 were […], respectively (Table 5). Probenecid ([…]) was the positive control inhibitor of OAT1 and OAT3, while rifampicin ([…]) served as the control drug of OATP1B1 and OATP1B3. For OCT2, we used […] cimetidine to compare with the inhibitory effect of PDQ. Two times (2×) more concentrated working solutions of the drugs and the substrate were prepared with Dulbecco’s phosphate-buffered saline (DPBS, Gibco, Grand Island, NY, USA.). Then, an equal volume of 2× drug solution and 2× radiolabeled substrate solution were mixed as the working mix. All reagents were pre-warmed to 37 °C.
The cells were digested with 0.05% trypsin/EDTA. The density of the single-cell suspension was adjusted to 2.0 × 10^5 cells/mL for S2 cells and to 1.5 × 10^5 cells/mL for MDCK II and HEK293A cells. The cell suspension was then added to the reservoirs of the 24-well plate for culture until full confluency. The medium in the wells was removed, and the wells were washed with DPBS. Then, the plate was incubated for 10 min with pre-warmed DPBS in the wells. After removing DPBS, […] of working mix was added to each well to initiate the substrate uptake process. The reaction time was 5 min for S2-OCT2 cells, while the other four types of cells were incubated with the reaction mix for 2 min. Cold DPBS was used to terminate the substrate transportation. To each well, […] NaOH ([…]) was added to lyse the cells. Then, […] cell lysate was transferred to the counting vials, and 3 mL scintillation cocktail (Aquasol-2, PerkinElmer, Waltham, MA, USA) was added. […] Each sample was replicated three times (N = 3).
In = [100 × (U − U0)/(Uc − U0)]%(3)
The results were expressed as mean ± standard deviation (SD) and analyzed with GraphPad Prism 8.0 software (CA, USA). The IC50 of PDQ was curve-fitted with the FORECAST function. Statistical significance was calculated using a two-tailed test, and a p value < 0.05 was considered as significant.

The conditions of series [1]: cited from earlier work.

Regarding `CC(C)(O)[C@@H]1CC[C@@](C)([C@H]2CC[C@]3(C)[C@@H]2[C@H](O)C[C@@H]2[C@@]4(C)CC[C@H](O)C(C)(C)[C@@H]4CC[C@]23C)O1` [PDQ, (20S,24S)-dammar-20,24-epoxy-3β, 12β, 25-triol], the “DPM (3H-ES uptake by OATP1B1)” value at hOATP1B1 (inhibitor 0.1 μM) was found to be 15255.0±875.8 DPM; on hOATP1B1 (inhibitor 0.3 μM), 16354.0±875.5 DPM; at hOATP1B1 (inhibitor 1 μM) it was 14584.0±689.5 DPM; on hOATP1B1 (inhibitor 3 μM) it was 13110.3±561.2 DPM; on hOATP1B1 (inhibitor 10 μM) it was 8070.3±754.4 DPM; on hOATP1B1 (inhibitor 30 μM), 5983.3±318.4 DPM. Besides, the “Transport activity of OATP1B1 (main text: percentage inhibition)” value at hOATP1B1 (inhibitor 0.1 μM) amounted to 100.9±5.8%; on hOATP1B1 (inhibitor 0.3 μM), 108.1±5.8%; at hOATP1B1 (inhibitor 1 μM) it was 96.4±4.6%; at hOATP1B1 (inhibitor 3 μM) it was 86.7±3.7%; on hOATP1B1 (inhibitor 10 μM), 53.4±5.0%. Moreover, in series [1] (PDQ in gattate pills), the bioavailability was 62.13%. Moreover, in series [1] (rat plasma), the “biological half-time (t1/2)” value was 5.97 ± 0.43 h. The “concentration at peak (Cmax)” value in series [1] (rat plasma) was 3265.12 ± 700.26 ng/mL. The “time to peak (Tmax)” value in series [1] (rat plasma) is given as 4.0 ± 0.0 h. Further, the Cmax in series [1] (rats, effective oral dosage 15 mg/kg, no reference given, read-out: peak concentration (Cmax)) was 6.5 µM. In addition, the “cumulative amount excreted through feces” value in series [1] (rats, over 96 h) is 55.39%. In addition, the “long-term accumulation in tissues” value in series [1] (rats, single oral dose of 30.0 mg/kg) is “no long-term accumulation”.
